Measured values: US7056910B2, “1,4,5.6-tetrahydroimidazo[4,5-d]diazepine derivatives or salts thereof” (Astellas Pharma Inc., priority 2000, dated 2006)
Structures can show the parent of a compound that is named as a salt.

Columns and labels:
[1] = target: T1, arginine vasopressin V2 receptor (Rattus norvegicus, UniProt Q00788); experiment: V2 receptor binding assay ([3H]-vasopressin, rat renal medullary membrane specimen); conditions: [3H]-vasopressin 0.5 nM, read-out: Binding activity against arginine vasopressin V2 receptor (pKi) (converted)
T1 construct: A rat renal medullary membrane specimen was prepared; from tissue; host or cells: rat renal medulla (membrane specimen)
T1 sequence (Q00788 whole entry): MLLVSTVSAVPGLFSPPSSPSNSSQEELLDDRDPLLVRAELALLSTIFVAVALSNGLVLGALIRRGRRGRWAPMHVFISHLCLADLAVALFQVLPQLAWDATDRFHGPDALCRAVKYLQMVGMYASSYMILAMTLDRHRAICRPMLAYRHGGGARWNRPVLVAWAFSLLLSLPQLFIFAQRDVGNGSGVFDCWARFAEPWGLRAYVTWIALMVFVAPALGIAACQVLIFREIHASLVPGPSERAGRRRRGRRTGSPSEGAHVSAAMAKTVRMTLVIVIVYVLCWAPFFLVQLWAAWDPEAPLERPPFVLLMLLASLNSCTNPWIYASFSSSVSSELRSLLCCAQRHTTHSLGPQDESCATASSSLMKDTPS
Description: (2) V2 Receptor Binding Assay:
A rat renal medullary membrane specimen was prepared according to the method of Cambell, et al. (Journal of Biological Chemistry, Vol. 247, No. 19, pp. 6167–6175, 1972). The rat renal medullary membrane specimen (200 μg) was treated together with [^3H]-vasopressin (0.5 nM, specific activity: 75 Ci/mmol) and a test compound (from 10^−10 to 10^−6 M) in the same manner as in the foregoing V1A receptor binding assay, and the same measurement was carried out to determine a pKi value.

[2] = target: T2, arginine vasopressin V1A receptor (Rattus norvegicus, UniProt P30560); experiment: V1A receptor binding assay ([3H]-vasopressin, rat hepatic membrane specimen); conditions: [3H]-vasopressin 0.5 nM, 25° C., 60 minutes, read-out: Binding activity against arginine vasopressin V1A receptor (pki) (converted)
T2 construct: A rat hepatic membrane specimen was prepared; from tissue; host or cells: rat liver (hepatic membrane specimen)
T2 sequence (P30560 whole entry): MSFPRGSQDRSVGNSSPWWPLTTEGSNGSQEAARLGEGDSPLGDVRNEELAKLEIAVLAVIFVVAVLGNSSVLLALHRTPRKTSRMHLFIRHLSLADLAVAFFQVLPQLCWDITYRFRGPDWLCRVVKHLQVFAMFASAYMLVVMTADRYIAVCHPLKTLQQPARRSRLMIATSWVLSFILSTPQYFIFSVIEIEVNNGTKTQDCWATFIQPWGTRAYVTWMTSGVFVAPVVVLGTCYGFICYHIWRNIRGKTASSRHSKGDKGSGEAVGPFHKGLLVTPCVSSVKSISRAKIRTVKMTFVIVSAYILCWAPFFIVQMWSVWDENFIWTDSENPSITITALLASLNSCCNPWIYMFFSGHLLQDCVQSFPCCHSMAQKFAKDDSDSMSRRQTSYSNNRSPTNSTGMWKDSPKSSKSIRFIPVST
Description: (1) V1A Receptor Binding Assay:
A rat hepatic membrane specimen was prepared according to the method of Nakamura, et al. (Journal of Biological Chemistry, Vol. 258, No. 15, pp. 9283–9289, 1983). The hepatic membrane specimen (30 μg) was incubated at 25° C. for 60 minutes in a total amount of 250 μL of a 50 mM TRIS-HCl buffer solution (pH: 7.4) containing 10 mM magnesium chloride and 0.1% bovine serum albumin (BSA), together with [^3H]-Arg-vasopressin (hereinafter simply referred to as “[^3H]-vasopressin”) (0.5 nM, specific activity: 75 Ci/mmol) and a test compound (from 10^−10 to 10^−6 M). Thereafter, liberated [^3H]-vasopressin and receptor-binding [^3H]-vasopressin were separated from each other by using a cell harvester, and the receptor-binding [^3H]-vasopressin was adsorbed on a UniFilter plate, GF/B glass filter. After thoroughly drying, the receptor-binding [^3H]-vasopressin was mixed with a microplate scintillation cocktail, the amount of the receptor-binding [^3H]-vasopressin was measured by using TopCount, and an inhibition rate was calculated according to the following equation. Inhibition rate (%)=[100−(C1−B1)]/(C0−B1)×100 C1: An amount of [^3H]-vasopressin binding to the membrane specimen when treating the receptor membrane specimen in the co-presence of the test compound having a known concentration and [^3H]-vasopressin C0: An amount of [^3H]-vasopressin binding to the membrane specimen when treating the receptor membrane specimen in the presence of [^3H]-vasopressin and in the absence of the test compound B1: An amount of [^3H]-vasopressin binding to the membrane specimen when treating the receptor membrane specimen in the co-presence of [^3H]-vasopressin and an excessive amount of vasopressin (10^−6 M)
According to the foregoing equation, a concentration of the test compound at the inhibition rate of 50% (IC50 value) was calculated, from which was then calculated an affinity of the test compound with the receptor, i.e., a dissociation constant (Ki), according to the following equation. Ki=IC50/(1+[L]/Kd) [L]: A concentration of [^3H]-vasopressin Kd: A dissociation constant of [^3H]-vasopressin against the receptor as determined by the saturation binding assay
A logarithm of the Ki value as calculated according to the foregoing equation was taken, and its negative value was defined as a pKi value.

[3] = target: drug metabolizing enzyme CYP3A4 (Homo sapiens, UniProt P08684); experiment: Cytochrome P450 (3A4) inhibition assay (BFC substrate, fluorescence); assay type: in vitro ADME; conditions: BFC 5×10^−5 M substrate, 37° C., 30 minutes; read-out: Inhibition activity against drug metabolizing enzyme CYP3A4 (IC50/μM)
drug metabolizing enzyme CYP3A4, sequence (P08684 whole entry): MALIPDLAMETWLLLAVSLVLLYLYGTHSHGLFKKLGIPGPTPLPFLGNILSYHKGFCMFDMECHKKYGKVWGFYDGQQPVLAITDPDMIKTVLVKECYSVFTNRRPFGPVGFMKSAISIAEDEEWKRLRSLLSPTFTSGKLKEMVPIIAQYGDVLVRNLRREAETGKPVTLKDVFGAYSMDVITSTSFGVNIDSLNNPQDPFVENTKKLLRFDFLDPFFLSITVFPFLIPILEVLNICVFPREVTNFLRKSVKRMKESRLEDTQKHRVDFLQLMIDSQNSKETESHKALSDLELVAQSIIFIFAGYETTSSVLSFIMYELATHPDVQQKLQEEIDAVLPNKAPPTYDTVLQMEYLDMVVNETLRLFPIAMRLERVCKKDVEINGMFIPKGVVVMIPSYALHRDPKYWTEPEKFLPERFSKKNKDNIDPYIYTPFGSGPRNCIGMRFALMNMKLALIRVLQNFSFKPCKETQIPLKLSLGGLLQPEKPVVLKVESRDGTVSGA
Description: (3) Cytochrome P450 (3A4) Inhibition Assay:
An assay was carried out according to the method of Crespi, et al. (Analytical Biochemistry, 248, 188–190, 1997). Using a 96-well plate, BFC (5×10^−5 M) as a substrate, a test compound (from 9.1×10^−8 to 2×10^−5 M), and an enzyme (10^−8 M) were incubated at 37° C. for 30 minutes in a total amount of 100 μL of a 20 mM phosphoric acid buffer solution (pH: 7.4) containing 1.3 mM NADP+, 3.3 mM glucose-6-pharpahte, 3.3 mM magnesium chloride, and 0.4 Units/mL glucose-6-phosphate dehydrogenase. Thereafter, a 100 mM TRIS buffer solution containing 80% acetonitrile was added to stop the reaction, and a fluorescent intensity (excitation wavelength: 409 nm, fluorescent wavelength: 530 nm) was measured by a fluorescent plate reader. An inhibition rate was calculated according to the following equation, and a concentration of the test compound at the inhibition rate of 50% (IC50 value) was determined. Inhibition rate (%)=[100−(C1−B1)]/(C0−B1)×100 C1: A fluorescent intensity in the presence of the test compound having a known concentration, enzyme and the substrate C0: A fluorescent intensity in the presence of enzyme and the substrate and in the absence of the test compound B1: A fluorescent intensity of the blank well

Row | SMILES | Ki [1] [nM] | Ki [2] [nM] | IC50 [3] [µM] | melting point [°C]
1 | O=C(Nc1ccc(C(=O)N2CCc3nc(Cc4ccccc4)[nH]c3-c3ccccc32)cc1)c1ccccc1-c1ccccc1 [Control compound 1, N-[4-(2-Benzyl-1,4,5,6-tetrahydroimidazo[4 5-d] [1]benzazepine-6-carbonyl)phenyl]biphenyl-2-carboxamide hydrochloride, reference compound] | 8.51 | 7.76 | 0.21 | 
2 | O=C(Nc1ccc(C(=O)N2CCc3nc(C4CC4)[nH]c3-c3ccccc32)cc1)c1ccccc1-c1ccccc1 [Control compound 2, N-[4(2-Cyclopropyl-1,4,5,6-tetrahydroimidazo[4,5-d] [1]benzazepine-6-carbonyl)phenyl]biphenyl-2-carboxamide hydrochloride, reference compound] | 1.05 | 1.23 | 0.43 | 
3 | O=C(Nc1ccc(C(=O)N2CCc3nc(-c4ccccn4)[nH]c3-c3ccccc32)cc1O)c1ccccc1-c1ccccc1 [Example 12, N-{2-Hydroxy-4-[2-(2-pyridyl)-1,4,5,6-tetrahydroimidazo[4,5-d][1]-benzazepine-6-carbonyl]phenyl}biphenyl-2-carboxamide hydrochloride] | 28.8 | 7.59 | 5.9 | 

More lines, now with the values ahead:

Row | Ki [1] [nM] | Ki [2] [nM] | IC50 [3] [µM] | melting point [°C] | SMILES
4 | 6.03 | 2.82 | 7.82 |  | O=C(Nc1ccc(C(=O)N2CCc3nc(-c4ccccn4)[nH]c3-c3ccccc32)cc1)c1ccccc1-c1ccccc1 [Example 1, N-{4-[2-(2-Pyridyl)-1,4,5,6-tetrahydroimidazo[4,5-d][1]benzazepine-6-carbonyl]phenyl}biphenyl-2-carboxamide hydrochloride]
5 |  |  |  | 240 to 242 | O=C(Nc1ccc(C(=O)N2CCc3nc(-c4ccccn4)[nH]c3-c3ccccc32)cc1)c1ccccc1-c1ccccc1 [Example 6, N-{4-[2-(2-Pyridyl)-1,4,5,6-tetrahydroimidazo[4,5-d][1]benzazepine-6-carbonyl]phenyl}biphenyl-2-carboxamide]
6 | 10.5 | 3.8 | 2.4 |  | O=C(Nc1ccc(C(=O)N2CCc3nc(-c4ccccn4)[nH]c3-c3ccccc32)cc1)c1ccccc1-c1ccccc1F [Example 9, 2′-fluoro-N-{4-[2-(2-pyridyl)-1,4,5,6-tetrahydroimidazo[4,5-d][1]benzazepine-6-carbonyl]phenyl}biphenyl-2-carboxamide]
7 | 12.3 | 1.95 | 2 |  | O=C(Nc1ccc(C(=O)N2CCc3nc(-c4ccccn4)[nH]c3-c3ccccc32)nc1)c1ccccc1-c1ccccc1 [Example 11, N-{6-[2-(2-pyridyl)-1,4,5,6-tetrahydroimidazo[4,5-d][1]benzazepine-6-carbonyl]-3-pyridyl}biphenyl-2-carboxamide]
